US20250041305A1, “PHARMACEUTICAL COMPOSITION OF SEPIAPTERIN” (PTC Therapeutics, Inc., priority 2021, published 2025)

Assay: Roller compaction processability observation and in-process data
Details: unformulated
Description: Formulations were manufactured at 100 g scale by roller compaction using the compositions as described in Table 17. The formulations were designed to evaluate the effect of formulation variables including drug loading, ratios of diluents and levels of other excipients on the processability, as shown in Table 17.
In the tables above, BD refers to Bulk Density, DT refers to Disintegration time, HR refers to Hausner ratio and TD refers to tapped density. Disintegration time is for a 0.5-inch ribbon. The plus signs in the table refer to the following observed characteristics: “+” is soft, “++” is medium hard, “+++” is hard, and “++++” is very hard.
To improve the flow properties of the sepiapterin composition of the invention, a dry granulation approach was selected. The manufacturing process included preblending, roller compaction followed by milling, final blending, and sachet filling. The batch analyses data from the selected manufacturing process yielded acceptable drug product within the specification limit. […]

bulk density: low bulk density
flow characteristics: poor flow characteristics
SMILES: C[C@H](O)C(=O)C1=Nc2c(nc(N)[nH]c2=O)NC1 [sepiapterin]
